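Values below derive from 48-hour exposures of cells grown in 96-well plates, with endpoints linearly interpolated between the two concentrations bracketing the appropriate inhibition level. Here, GI50 denotes the concentration required for 50% inhibition of growth.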 Activity calls are given as the source filed them. Cut-off read from the data, not from the text of the source: active = GI50 up to about 1.1 µM and inactive = higher.
How the values were obtained:
Assay in all cases: NCI-60 cell line screen, 48 h
786-0 = test system: 786-0
A498 = test system: A498
A549 = test system: A549
ACHN = test system: ACHN
BT-549 = test system: BT-549
CAKI-1 = test system: CAKI-1
CCRF-CEM = test system: CCRF-CEM
COLO 205 = test system: COLO 205
DU-145 = test system: DU-145
EKVX = test system: EKVX
HCC 2998 = test system: HCC 2998
HCT-116 = test system: HCT-116
HCT-15 = test system: HCT-15
HL-60 = test system: HL-60
HOP-62 = test system: HOP-62
HT-29 = test system: HT-29
Hs-578T = test system: Hs-578T
IGROV-1 = test system: IGROV-1
K562 = test system: K562
KM12 = test system: KM12
LOX IMVI = test system: LOX IMVI
M14 = test system: M14
MCF7 = test system: MCF7
MDA-MB-231 = test system: MDA-MB-231
MDA-MB-435 = test system: MDA-MB-435
MDA-N = test system: MDA-N
MOLT-4 = test system: MOLT-4
Malme-3M = test system: Malme-3M
NCI-H226 = test system: NCI-H226
NCI-H23 = test system: NCI-H23
NCI-H460 = test system: NCI-H460
NCI-H522 = test system: NCI-H522
NCI/ADR-RES = test system: NCI/ADR-RES
OVCAR-3 = test system: OVCAR-3
OVCAR-4 = test system: OVCAR-4
OVCAR-5 = test system: OVCAR-5
OVCAR-8 = test system: OVCAR-8
PC-3 = test system: PC-3
RPMI-8226 = test system: RPMI-8226
SF-268 = test system: SF-268
SF-295 = test system: SF-295
SK-MEL-28 = test system: SK-MEL-28
SK-MEL-2 = test system: SK-MEL-2
SK-MEL-5 = test system: SK-MEL-5
SK-OV-3 = test system: SK-OV-3
SN12C = test system: SN12C
SNB-19 = test system: SNB-19
SR = test system: SR
SW-620 = test system: SW-620
T47D = test system: T47D
TK-10 = test system: TK-10
U-251 = test system: U-251
UACC-257 = test system: UACC-257
UACC-62 = test system: UACC-62
UO-31 = test system: UO-31
RXF 393 = test system: RXF 393
SF-539 = test system: SF-539
SNB-75 = test system: SNB-75

Measured: GI50

CN(C)CCCN1c2ccccc2CCc2ccc([N+](=O)[O-])cc21
26.9 µM: HCT-15
inactive: 786-0 33 µM | A498 17.7 µM | A549 34.6 µM | ACHN 34.6 µM | BT-549 27.9 µM | CAKI-1 40.6 µM | CCRF-CEM 39.2 µM | COLO 205 13.6 µM | DU-145 18.4 µM | EKVX 69.3 µM | HCC 2998 13.9 µM | HCT-116 26.9 µM | HL-60 19.8 µM | HOP-62 25.7 µM | HT-29 19.1 µM | Hs-578T > 100 µM | IGROV-1 14.9 µM | K562 30.3 µM | KM12 18.1 µM | LOX IMVI 16.1 µM | M14 15.4 µM | MCF7 17.7 µM | MDA-MB-231 39.2 µM | MDA-MB-435 17.9 µM | MDA-N 18.5 µM | MOLT-4 33.3 µM | Malme-3M 19.5 µM | NCI-H226 26.2 µM | NCI-H23 27.2 µM | NCI-H460 19.5 µM | NCI-H522 17.5 µM | NCI/ADR-RES 19.1 µM | OVCAR-3 34.5 µM | OVCAR-4 35.5 µM | OVCAR-5 27.9 µM | OVCAR-8 29.6 µM | PC-3 34.8 µM | RPMI-8226 34.5 µM | SF-268 29.6 µM | SF-295 17.9 µM | SK-MEL-28 25.5 µM | SK-MEL-2 20.3 µM | SK-MEL-5 15.8 µM | SK-OV-3 37.2 µM | SN12C 22.8 µM | SNB-19 45.1 µM | SR 25.9 µM | SW-620 38.5 µM | T47D 16.5 µM | TK-10 18.7 µM | U-251 29.3 µM | UACC-257 16.3 µM | UACC-62 16.1 µM | UO-31 16 µM

CSc1[nH]nc(N)c1C(=O)Nc1ccccc1
inactive: 786-0 > 100 µM | A498 > 100 µM | A549 > 100 µM | BT-549 > 100 µM | CAKI-1 > 100 µM | CCRF-CEM > 100 µM | COLO 205 > 100 µM | DU-145 > 100 µM | EKVX > 100 µM | HCC 2998 > 100 µM | HCT-116 > 100 µM | HL-60 > 100 µM | HT-29 > 100 µM | Hs-578T > 100 µM | IGROV-1 > 100 µM | K562 > 100 µM | KM12 > 100 µM | LOX IMVI > 100 µM | M14 > 100 µM | MCF7 > 100 µM | MDA-MB-231 > 100 µM | MDA-MB-435 > 100 µM | MDA-N > 100 µM | MOLT-4 > 100 µM | Malme-3M > 100 µM | NCI-H226 > 100 µM | NCI-H23 > 100 µM | NCI-H460 > 100 µM | NCI-H522 52.4 µM | NCI/ADR-RES > 100 µM | OVCAR-3 > 100 µM | OVCAR-4 > 100 µM | OVCAR-5 > 100 µM | OVCAR-8 > 100 µM | PC-3 > 100 µM | RPMI-8226 > 100 µM | RXF 393 > 100 µM | SF-268 > 100 µM | SF-539 > 100 µM | SK-MEL-28 > 100 µM | SK-MEL-2 > 100 µM | SK-MEL-5 > 100 µM | SK-OV-3 > 100 µM | SN12C > 100 µM | SNB-19 > 100 µM | SNB-75 > 100 µM | SR > 100 µM | SW-620 > 100 µM | T47D > 100 µM | TK-10 > 100 µM | U-251 > 100 µM | UACC-257 > 100 µM | UACC-62 > 100 µM | UO-31 > 100 µM
> 100 µM: HCT-15
